Source: US7897326B2, “Peroxisome-proliferator activated receptor-alpha agonists for organ preservation” (University of Pittsburgh-of the Commonwealth System of …, priority 2006, dated 2011)
Counter-ions that a name gives are not always drawn.

How the values were obtained:
rat kidneys [1] = assay: Light microscopy histology of isolated rat kidneys perfused 12 hours at 37° C. with L-15; conditions: for histological preservation as assessed by light microscopy (screen of pharmacological agents): agent added to L-15 perfusate, 12-hour perfusion at 37° C.; for histology at the light microscopic level / histology score (0 = unrecognizable micro-structure, 10 = 30-minute flushed kidney), FIG. 1: mannitol 20 grams/L, gemfibrozil 50 mg/L, 12-hour perfusion; for histology at the light microscopic level: vs L-15 alone; for histology score (0 = unrecognizable micro-structure, 10 = 30-minute flushed kidney), FIG. 1: blinded observer
Procedure: Animals. Male Sprague-Dawley rats, 15 to 20 weeks-of-age, were housed in a University of Pittsburgh Medical Center animal care facility (temperature 22 EC; light cycle 12 hours; relative humidity 55%). Animals were fed Pro Laboratory RMH 3000 rodent diet (PMI Nutrition Inc., St. Louis, Mo.) and were given water ad libitum. Institutional guidelines for animal welfare were followed, and the Institutional Animal Care and Use Committee approved experimental protocols.
Preparation of Perfusion System. Due to bacterial infection associated with chronic kidney perfusion at 37° C., rat kidneys were perfused in a sterile environment. A glass perfusion system (Hugo Sachs Elektronik-Harvard Apparatus GmbH), which allowed for autoclaving and ultraviolet-light sterilization without damage to the structural integrity of the system, was used in all experiments. This system included the following components arranged in series: a jacketed glass perfusate reservoir for warming and initial oxygenation of perfusate; a jacketed glass-oxygenator for additional oxygenation; a Windkessel chamber for absorption of pulsations; a jacketed heat exchanger for warming the perfusate and trapping bubbles just before the perfusate enters the kidney; and a jacketed organ chamber to keep the kidney's surrounding environment at 37° C.
Drug Preparation. Leibovitz L-15 cell culture medium (Sigma, St. Louis, Mo.) was mixed according to the manufacture's specifications to make 2 liters and 120 mg of penicillin was added. The pH of one liter of L-15 was adjusted to 7.4, and this solution was used during the kidney isolation procedure. The other liter was further prepared with addition of various pharmacological agents, and then the pH adjusted to 7.4. Both solutions were then filtered (0.22 microns) into 1 liter containers. The solution with the experimental drug was then perfused through the kidney perfusion system at a rate of 2.6 ml/min. The other solution was placed underneath the hood where the surgery was to be done.
Kidney Isolation. Kidneys were isolated under a laminar flow hood (Labconco) fitted with a separate roller pump. The operator used sterilized latex gloves with frequent application of 75% alcohol to gloves and instruments throughout the course of the surgery. Gloves were replaced anytime the operator's hands left the surgical hood. Animals were anesthetized with Inactin (90 mg/kg, ip; Sigma), the abdomen was shaved, washed with 75% alcohol, and covered with autoclaved paper towels. The tubing, which would eventually be required for isolation, was assembled and placed in the roller pump. This tubing consisted of three sequentially smaller sections, the middle of which was the pump tubing (Harvard Apparatus). The smallest of the sections was linked, using an adaptor connector, to PE-50 tubing (which had been previously soaked in alcohol for at least 2 days). This PE-50 tubing was for insertion into the renal artery. The largest size tubing was placed into the 1 liter of room temperature L-15. The pump was turned on for a brief time, allowing all tubing to be filled with L-15 medium to remove all air bubbles from the tubing. The skin covering the abdominal cavity was cut horizontally. A light spray of alcohol was applied to the area to remove pieces of hair, followed by a horizontal cut in the same area through the muscle; exposing the internal organs. A section of sterile gauze was set to the left of the animal, and the large/small intestines were gently pulled out of the abdominal cavity and wrapped in the gauze. […] All side branches of the renal artery and vein were ligated and cut. Next, the aorta, vena cava, renal artery and renal vein were identified, cleaned of fat and connective tissue and dissected free, and ligatures were loosely placed around these vessels. […]

rat kidney tissue = assay: Electron microscopy of isolated rat kidneys perfused 12 hours with L-15; conditions: one kidney per group; mannitol 20 grams/L, gemfibrozil 50 mg/L; vs L-15 alone
Procedure: Drug Preparation. Leibovitz L-15 cell culture medium (Sigma, St. Louis, Mo.) was mixed according to the manufacture's specifications to make 2 liters and 120 mg of penicillin was added. The pH of one liter of L-15 was adjusted to 7.4, and this solution was used during the kidney isolation procedure. The other liter was further prepared with addition of various pharmacological agents, and then the pH adjusted to 7.4. Both solutions were then filtered (0.22 microns) into 1 liter containers. The solution with the experimental drug was then perfused through the kidney perfusion system at a rate of 2.6 ml/min. The other solution was placed underneath the hood where the surgery was to be done. Kidney Isolation. Kidneys were isolated under a laminar flow hood (Labconco) fitted with a separate roller pump. The operator used sterilized latex gloves with frequent application of 75% alcohol to gloves and instruments throughout the course of the surgery. Gloves were replaced anytime the operator's hands left the surgical hood. Animals were anesthetized with Inactin (90 mg/kg, ip; Sigma), the abdomen was shaved, washed with 75% alcohol, and covered with autoclaved paper towels. The tubing, which would eventually be required for isolation, was assembled and placed in the roller pump. This tubing consisted of three sequentially smaller sections, the middle of which was the pump tubing (Harvard Apparatus). The smallest of the sections was linked, using an adaptor connector, to PE-50 tubing (which had been previously soaked in alcohol for at least 2 days). This PE-50 tubing was for insertion into the renal artery. The largest size tubing was placed into the 1 liter of room temperature L-15. The pump was turned on for a brief time, allowing all tubing to be filled with L-15 medium to remove all air bubbles from the tubing. The skin covering the abdominal cavity was cut horizontally. A light spray of alcohol was applied to the area to remove pieces of hair, followed by a horizontal cut in the same area through the muscle; exposing the internal organs. A section of sterile gauze was set to the left of the animal, and the large/small intestines were gently pulled out of the abdominal cavity and wrapped in the gauze. […] All side branches of the renal artery and vein were ligated and cut. Next, the aorta, vena cava, renal artery and renal vein were identified, cleaned of fat and connective tissue and dissected free, and ligatures were loosely placed around these vessels. The infra-renal aorta was ligated, a small clamp was placed on the aorta just above the ligation but below the renal artery, a cut was made between the clamp and ligation, and the PE-50 tubing was inserted, secured with a ligature and advanced into the left renal artery. […]

rat kidneys [2] = assay: Urine collection from isolated perfused rat kidney; conditions: 12 hours of perfusion; mannitol 20 grams/L, gemfibrozil 50 mg/L
Procedure: (§1) Drug Preparation. Leibovitz L-15 cell culture medium (Sigma, St. Louis, Mo.) was mixed according to the manufacture's specifications to make 2 liters and 120 mg of penicillin was added. The pH of one liter of L-15 was adjusted to 7.4, and this solution was used during the kidney isolation procedure. The other liter was further prepared with addition of various pharmacological agents, and then the pH adjusted to 7.4. Both solutions were then filtered (0.22 microns) into 1 liter containers. The solution with the experimental drug was then perfused through the kidney perfusion system at a rate of 2.6 ml/min. The other solution was placed underneath the hood where the surgery was to be done. Kidney Isolation. Kidneys were isolated under a laminar flow hood (Labconco) fitted with a separate roller pump. The operator used sterilized latex gloves with frequent application of 75% alcohol to gloves and instruments throughout the course of the surgery. Gloves were replaced anytime the operator's hands left the surgical hood. Animals were anesthetized with Inactin (90 mg/kg, ip; Sigma), the abdomen was shaved, washed with 75% alcohol, and covered with autoclaved paper towels. The tubing, which would eventually be required for isolation, was assembled and placed in the roller pump. This tubing consisted of three sequentially smaller sections, the middle of which was the pump tubing (Harvard Apparatus). […]

Na+-K+-ATPase-α1 = assay: Western blotting and densitometry of Na+-K+-ATPase-α1 in 12-hour perfused rat kidneys; conditions: mannitol 20 grams/L, gemfibrozil 50 mg/L; 12-hour perfusion
Procedure: as §1

rat kidneys [3] = assay: Apoptag (TUNEL) staining for apoptosis in 12-hour perfused rat kidneys; conditions: mannitol 20 grams/L, gemfibrozil 50 mg/L; vs L-15 alone
Procedure: as §1

rat kidneys [4] = assay: Perfusion pressure of isolated perfused rat kidney over 12 hours; conditions: mannitol 20 grams/L, gemfibrozil 50 mg/L
Procedure: Drug Preparation. Leibovitz L-15 cell culture medium (Sigma, St. Louis, Mo.) was mixed according to the manufacture's specifications to make 2 liters and 120 mg of penicillin was added. The pH of one liter of L-15 was adjusted to 7.4, and this solution was used during the kidney isolation procedure. The other liter was further prepared with addition of various pharmacological agents, and then the pH adjusted to 7.4. Both solutions were then filtered (0.22 microns) into 1 liter containers. The solution with the experimental drug was then perfused through the kidney perfusion system at a rate of 2.6 ml/min. The other solution was placed underneath the hood where the surgery was to be done. Kidney Isolation. Kidneys were isolated under a laminar flow hood (Labconco) fitted with a separate roller pump. The operator used sterilized latex gloves with frequent application of 75% alcohol to gloves and instruments throughout the course of the surgery. Gloves were replaced anytime the operator's hands left the surgical hood. Animals were anesthetized with Inactin (90 mg/kg, ip; Sigma), the abdomen was shaved, washed with 75% alcohol, and covered with autoclaved paper towels. The tubing, which would eventually be required for isolation, was assembled and placed in the roller pump. This tubing consisted of three sequentially smaller sections, the middle of which was the pump tubing (Harvard Apparatus). The smallest of the sections was linked, using an adaptor connector, to PE-50 tubing (which had been previously soaked in alcohol for at least 2 days). This PE-50 tubing was for insertion into the renal artery. The largest size tubing was placed into the 1 liter of room temperature L-15. The pump was turned on for a brief time, allowing all tubing to be filled with L-15 medium to remove all air bubbles from the tubing. The skin covering the abdominal cavity was cut horizontally. A light spray of alcohol was applied to the area to remove pieces of hair, followed by a horizontal cut in the same area through the muscle; exposing the internal organs. […]

Compound	histological preservation as assessed by light microscopy (screen of pharmacological agents) (rat kidneys [1])	histology at the light microscopic level (rat kidneys [1])	histology score (0 = unrecognizable micro-structure, 10 = 30-minute flushed kidney), FIG. 1 (rat kidneys [1])	glomerular ultrastructure (electron microscopy) (rat kidney tissue)	tubular ultrastructure (electron microscopy) (rat kidney tissue)	total urine volume, FIG. 4C (rat kidneys [2])	Na+-K+-ATPase-α1 expression normalized to β-actin, FIG. 2 (Na+-K+-ATPase-α1)	degree of apoptosis (Apoptag staining) (rat kidneys [3])	rapid increase in perfusion pressure observed in L-15 alone kidneys, FIG. 3 (rat kidneys [4])	initial renal perfusion pressure, FIG. 3 (rat kidneys [4]; L-15 alone approximately 50 mm Hg)
Nc1cc(N2CCCCC2)nc(N)[n+]1OS(=O)(=O)[O-] [minoxidil sulfate]	mild protection	–	–	–	–	–	–	–	–	–
OC[C@@H](O)[C@@H](O)[C@H](O)[C@H](O)CO [mannitol]	moderate histological preservation	modestly improved	did not achieve statistical significance	slightly improved	only marginally better	increased total urine volume	nearly undetectable	reduced the degree of apoptosis	more so	approximately 25 mm Hg
NC(=O)c1cccc(N)c1 [3-aminobenzamide]	mild protection	–	–	–	–	–	–	–	–	–
Cc1ccc(C)c(OCCCC(C)(C)C(=O)O)c1 [gemfibrozil]	moderate histological preservation	modestly improved	statistically significantly improved the histological score	slightly improved	only marginally better	increased total urine volume	slightly higher	reduced the degree of apoptosis	delayed	–
C[C@]12CCC(=O)C=C1CC[C@@H]1[C@@H]2[C@@H](O)C[C@]2(C=O)[C@@H](C(=O)CO)CC[C@@H]12 [Aldosterone, aldosterone]	mild protection	–	–	–	–	–	–	–	–	–
O=c1[nH]c(=O)c2[nH]c(=O)[nH]c2[nH]1 [uric acid]	mild protection	–	–	–	–	–	–	–	–	–
